One assay has as its system A549. The experiment in a line: Cytotoxicity against human A549 cells by SRB assay. The format is functional, cell-based. For orientation: The SRB assay estimates cell density from bound dye.
The subject of another assay is HepG2. The experiment in a line: Cytotoxicity against human HepG2 cells by SRB assay. It is filed as functional, cell-based.

Drawing on ChEMBL document CHEMBL4130510, “Cytotoxic Dibohemamines D-F from a Streptomyces Species” (J Nat Prod, 2017), this text covers IC50 for six molecules.

For orientation: IC50 means the midpoint of a concentration-inhibition curve. Low readings indicate greater potency in that assay, high ones weaker potency in that assay.

For the molecule `CC(C)=CC(=O)NC1=C(CC2=C(NC(=O)C=C(C)C)N3[C@@H](C)[C@H]4O[C@H]4[C@@]3(C)C2=O)C(=O)[C@]2(C)C[C@H](O)[C@H](C)N12`, the 50% inhibitory concentration (IC50) came to 1.1 µM with A549 and 0.3 µM in the assay with HepG2.

With `CC(C)=CC(=O)NC1=C(CC2=C(NC(=O)C=C(C)C)N3[C@@H](C)[C@H]4O[C@H]4[C@@]3(C)C2=O)C(=O)[C@]2(C)[C@H](O)C[C@H](C)N12`, the half-maximal inhibitory concentration (IC50) stood at 20.2 µM with A549 and 7.3 µM in the assay on HepG2.

Consider `CC(C)=CC(=O)NC1=C(CC2=C(NC(=O)C=C(C)C)N3[C@@H](C)[C@H]4O[C@H]4[C@@]3(C)C2=O)C(=O)[C@]2(C)[C@@H]3O[C@@H]3[C@H](C)N12`, for which the values for the IC50 in the assay on A549 and in the assay on HepG2 were 39.2 µM and 10.8 µM, respectively.

Turning to `CC(C)=CC(=O)NC1=CC(=O)[C@]2(C)C[C@H](O)[C@H](C)N12` [BOHEMAMINE B], the IC50 in the assay on A549 came out at 502 µM; in the assay on HepG2, 181 µM.

With `CC(C)=CC(=O)NC1=CC(=O)[C@]2(C)[C@@H]3O[C@@H]3[C@H](C)N12` [BOHEMAMINE], the IC50 with A549 was 290 µM; in the assay with HepG2, 29.7 µM.

With `COc1cccc2c1C(=O)c1c(O)c3c(c(O)c1C2=O)C[C@@](O)(C(=O)CO)C[C@@H]3O[C@H]1C[C@H](N)[C@H](O)[C@H](C)O1` [DOXORUBICIN], the IC50 in the assay with A549 is 1.4 µM. This counts as single-digit micromolar.
